Where “and” joins values, the source holds several entries; their conditions need not be identical. Equal entries are not always repeated. Where two headings read alike, the source gives them in different places.
How the values were obtained:
MCF-7 cells = assay: MCF-7 cell proliferation, CTG reagent, 6-day treatment, single agents and combination (CompuSyn synergy analysis); assay type: cell-based
Experimental: The effect of 6-day compound treatment on cell proliferation was measured using CTG reagent.

Z-138 cells = assay: Z-138 cell proliferation, CTG reagent, 3-day treatment, single agents and combination (CompuSyn synergy analysis); assay type: cell-based
Experimental: Z-138 cells were treated with serial dilutions of Compound-44A (CDK7 inhibitor), serial dilutions of venetoclax individually and in combination for 3 days. The effect of 3-day compound treatment on cell proliferation was measured using CTG reagent. Percentage inhibition of cell proliferation in individual (Compound-44A, venetoclax) and combination treatments (Compound-44A+venetoclax) were analyzed using CompuSyn software to assess synergy.

CC(C)[C@H](C(=O)Nc1cc(C2CC2)[nH]n1)c1cccc(-c2ccc(NC(=O)/C=C/CN3CCOCC3)nc2)c1 (single isomer, unassigned) [Compound-44A]
% Inhibition of proliferation (MCF-7 cells; Compound-44A 0.006272 nM, Day-6): −4.1% and −1.7% and 4.8% | % Inhibition of proliferation (MCF-7 cells; Compound-44A 0.018817 nM, Day-6): 4.6% and 3.8% | % Inhibition of proliferation (MCF-7 cells; Compound-44A 0.056450 nM, Day-6): −11.5% and −2.9% and −2.8% | % Inhibition of proliferation (MCF-7 cells; Compound-44A 4.5725 nM, Day-6): 12.9% and 11.7% | % Inhibition of proliferation (MCF-7 cells; Compound-44A 13.7174 nM, Day-6): 44.3% and 47.5% | % Inhibition of proliferation (MCF-7 cells; Compound-44A 41.1523 nM, Day-6): 75.4% and 75.5% | % Inhibition of proliferation (MCF-7 cells; Compound-44A 123.4568 nM, Day-6): 84% | % Inhibition of proliferation (MCF-7 cells; Compound-44A 370.3704 nM, Day-6): 87.5% and 86.2% | % Inhibition of proliferation (MCF-7 cells; Compound-44A 1111.11 nM, Day-6): 106.1% | % Inhibition of proliferation (MCF-7 cells; Compound-44A 3333.333 nM, Day-6): 106.1% and 106.3% | % Inhibition of proliferation (MCF-7 cells; Compound-44A 10000 nM, Day-6): 106.4% and 106.3% | % Inhibition of proliferation (MCF-7 cells; Compound-44A 30000 nM, Day-6): 112.3% | inhibition at 0.0005 µM (MCF-7 cells; Homo sapiens, MCF7, 144 h, Fulvestrant 0 nM + Compound-44A 0.50 nM, 6 days): 4% | inhibition at 0.0015 µM (MCF-7 cells; Homo sapiens, MCF7, 144 h, Fulvestrant 0 nM + Compound-44A 1.50 nM, 6 days): 4% | inhibition at 0.041 µM (MCF-7 cells; Homo sapiens, MCF7, 144 h, Fulvestrant 0 nM + Compound-44A 41.00 nM, 6 days): 74% | inhibition at 0.123 µM (MCF-7 cells; Homo sapiens, MCF7, 144 h, Fulvestrant 0 nM + Compound-44A 123.00 nM, 6 days): 83% | inhibition at 0.3703 µM (MCF-7 cells; Homo sapiens, MCF7, 144 h, Fulvestrant 0 nM + Compound-44A 370.30 nM, 6 days): 87% | inhibition at 18.82 pM (MCF-7 cells; Homo sapiens, MCF7, Compound-44A 0.018817 nM, Day-6): 2.9% | inhibition at 0.0045725 µM (MCF-7 cells; Homo sapiens, MCF7, Compound-44A 4.5725 nM, Day-6): 13.6% | inhibition at 0.0137174 µM (MCF-7 cells; Homo sapiens, MCF7, Compound-44A 13.7174 nM, Day-6): 48.3% | inhibition at 0.0411523 µM (MCF-7 cells; Homo sapiens, MCF7, Compound-44A 41.1523 nM, Day-6): 71.6% | inhibition at 0.123457 µM (MCF-7 cells; Homo sapiens, MCF7, Compound-44A 123.4568 nM, Day-6): 81.6% | inhibition at 0.37037 µM (MCF-7 cells; Homo sapiens, MCF7, Compound-44A 370.3704 nM, Day-6): 88.5% | inhibition at 1.11111 µM (MCF-7 cells; Homo sapiens, MCF7, Compound-44A 1111.11 nM, Day-6): 105% | inhibition at 3.33333 µM (MCF-7 cells; Homo sapiens, MCF7, Compound-44A 3333.333 nM, Day-6): 106% | inhibition at 10 µM (MCF-7 cells; Homo sapiens, MCF7, Compound-44A 10000 nM, Day-6): 106% | inhibition at 30 µM (MCF-7 cells; Homo sapiens, MCF7, Compound-44A 30000 nM, Day-6): 112% | synergy in inhibiting the proliferation of breast cancer cell line MCF-7 (MCF-7 cells; in combination with fulvestrant): synergy | inhibition of proliferation in MCF-7 cells (MCF-7 cells; single agent, serial dilutions, 6 days): dose dependent inhibition of proliferation | % Inhibition of proliferation (Z-138 cells; Compound-44A 0.0015 μM, Day-3): −1.8% and 3.5% | % Inhibition of proliferation (Z-138 cells; Compound-44A 0.0046 μM, Day-3): 5.8% and 5.6% and −3.4% | % Inhibition of proliferation (Z-138 cells; Compound-44A 0.0412 μM, Day-3): 63.6% and 62.2% | % Inhibition of proliferation (Z-138 cells; Compound-44A 0.1235 μM, Day-3): 72.1% and 74.5% | % Inhibition of proliferation (Z-138 cells; Compound-44A 0.3704 μM, Day-3): 77.2% and 77.3% | % Inhibition of proliferation (Z-138 cells; Compound-44A 1.1111 μM, Day-3): 99.3% and 98.8% | % Inhibition of proliferation (Z-138 cells; Compound-44A 3.3333 μM, Day-3): 99.9% | % Inhibition of proliferation (Z-138 cells; Compound-44A 10.0000 μM, Day-3): 99.9% | inhibition at 0.0015 µM (Z-138 cells; Homo sapiens, Z-138, 72 h, Venetoclax 0.0 μM + Compound-44A 0.0015 μM, 3 days): 2% | inhibition at 0.0412 µM (Z-138 cells; Homo sapiens, Z-138, 72 h, Venetoclax 0.0 μM + Compound-44A 0.0412 μM, 3 days, read-out: % Inhibition in proliferation): 63% | inhibition at 0.1235 µM (Z-138 cells; Homo sapiens, Z-138, 72 h, Venetoclax 0.0 μM + Compound-44A 0.1235 μM, 3 days, read-out: % Inhibition in proliferation): 73% | inhibition at 0.3704 µM (Z-138 cells; Homo sapiens, Z-138, 72 h, Venetoclax 0.0 μM + Compound-44A 0.3704 μM, 3 days, read-out: % Inhibition in proliferation): 77% | inhibition at 1.1111 µM (Z-138 cells; Homo sapiens, Z-138, 72 h, Venetoclax 0.0 μM + Compound-44A 1.1111 μM, 3 days, read-out: % Inhibition in proliferation): 99% | inhibition at 0.0412 µM (Z-138 cells; Homo sapiens, Z-138, Compound-44A 0.0412 μM, Day-3, read-out: % Inhibition of proliferation): 62.1% | inhibition at 0.1235 µM (Z-138 cells; Homo sapiens, Z-138, Compound-44A 0.1235 μM, Day-3, read-out: % Inhibition of proliferation): 72.4% | inhibition at 0.3704 µM (Z-138 cells; Homo sapiens, Z-138, Compound-44A 0.3704 μM, Day-3, read-out: % Inhibition of proliferation): 76.6% | inhibition at 1.1111 µM (Z-138 cells; Homo sapiens, Z-138, Compound-44A 1.1111 μM, Day-3, read-out: % Inhibition of proliferation): 99.4% | inhibition at 3.3333 µM (Z-138 cells; Homo sapiens, Z-138, Compound-44A 3.3333 μM, Day-3): 100% | inhibition at 10 µM (Z-138 cells; Homo sapiens, Z-138, Compound-44A 10.0000 μM, Day-3): 100% | synergy in inhibiting the proliferation of leukemia cancer cell line Z-138 (Z-138 cells; in combination with venetoclax): synergy | inhibition of proliferation in Z-138 cells (Z-138 cells; single agent, serial dilutions, 3 days): dose dependent inhibition of proliferation

Source: patent US20240277722A1, “CANCER THERAPY USING A COMBINATION OF CDK7 INHIBITOR WITH AN ANTI-CANCER AGENT” (Aurigene Oncology Limited, priority 2021, published 2024)
